From patent US10815199B2, “NMDA antagonist prodrugs” (priority 2013, dated 2020)
Counter-ions that a name gives are not always drawn. Like-named read-outs stand apart in the source and are kept apart here.

Columns and labels:
[1] = Hum Liver Assay (human liver S9 fraction); assay type: in vitro ADME
Excerpt: This example illustrates that different prodrugs of (S)-1-phenyl-2-(pyridin-2-yl)ethanamine, wherein R1 is C1-6 alkylC(O)O(C1-6 alkoxy), may be used to achieve differing rates of conversion (i.e., slow or rapid) to (S)-1-phenyl-2-(pyridin-2-yl)ethanamine to ascertain a suitable PK profile. […] Further, this Example illustrates that there is no expected loss in oral exposure when a prodrug is converted to free base. Conversion of a prodrug wherein R1 is C1-6 alkylC(O)O(C1-6 alkoxy) to (S)-1-phenyl-2-(pyridin-2-yl)ethanamine is expected to occur via an initial enzymatic hydrolysis of a functional group, such as an ester, followed by a spontaneous conversion to (S)-1-phenyl-2-(pyridin-2-yl)ethanamine. Enzymes involved are expected to be several non-specific, high capacity esterases, which can be shown by inhibiting the conversion with a non-selective esterase inhibitor but not inhibiting the conversion using selective inhibitors. Such esterases are expected to be distributed throughout the human body. Human Intestinal Fluid (HIF), human liver S9 fraction and human whole blood have been used to examine the pharmacokinetic properties of the prodrugs of (S)-1-phenyl-2-(pyridin-2-yl)ethanamine as well as the formation rate and formation extent of the (S)-1-phenyl-2-(pyridin-2-yl)ethanamine in different bodily compartments. The formation rate of (S)-1-phenyl-2-(pyridin-2-yl)ethanamine from different prodrugs of (S)-1-phenyl-2-(pyridin-2-yl)ethanamine differs markedly in all tested assays, as shown in Table 1.
Human Intestinal Fluids (HIF), Human Liver and Human Blood assays used to generate the results shown in Table 1 have been described in Malmborg J & Ploeger B A, J Pharmacol Toxicol Methods (2013) May-June 67(3) 203-13, which is incorporated by reference herein.
(§1) [drawing 48] is expected to occur via enzymatic hydrolysis at the proline C-terminus, releasing a dipeptide and (S)-1-phenyl-2-(pyridin-2-yl)ethanamine. The enzyme involved is expected to be dipeptidyl peptidase IV (DPPIV), which can be shown by inhibiting the conversion with a selective inhibitor of this enzyme. DPPIV is expected to be distributed throughout the human body. Human Intestinal Fluid (HIF), human liver S9 fraction and human whole blood have been used to examine the pharmacokinetic properties of prodrugs of (S)-1-phenyl-2-(pyridin-2-yl)ethanamine as well as the formation rate and formation extent of the (S)-1-phenyl-2-(pyridin-2-yl)ethanamine in different bodily compartments. Caco-2 cells have been used to evaluate the permeability and absorption potential of the prodrugs of (S)-1-phenyl-2-(pyridin-2-yl)ethanamine. The formation rate of (S)-1-phenyl-2-(pyridin-2-yl)ethanamine from different prodrugs of (S)-1-phenyl-2-(pyridin-2-yl)ethanamine differed in the tested assays, especially in human blood, as shown in Table 2.

Seizures in dog = Seizures in dog (NOEL/LOEL) after oral gavage; assay type: in vivo; conditions: for LOEL Seizures in dog (Dose administered) / NOEL Seizures in dog (Dose administered): oral gavage, dose reflects free base concentration
Method: This example illustrates that when doses of prodrug of (S)-1-phenyl-2-(pyridin-2-yl)ethanamine dihydrochloride (Example 5) and (S)-1-phenyl-2-(pyridin-2-yl)ethanamine dihydrochloride were administered to dogs, the risk of seizures, as represented by NOEL and LOEL, was less with the prodrug.
(S)-1-phenyl-2-(pyridin-2-yl)ethanamine dihydrochloride and vehicle were administered once per day via oral gavage (water). Formulations were prepared twice, once weekly. Dosing formulations were stored and refrigerated (2-8° C.) in amber glass containers until required for dosing. A range of concentrations of (S)-1-phenyl-2-(pyridin-2-yl)ethanamine dihydrochloride in vehicle were prepared in order to keep the dose volume for all doses (1 mL/kg). Individual doses were based on the most recent body weights of dogs used in the study.
A prodrug of (S)-1-phenyl-2-(pyridin-2-yl)ethanamine as fumarate salt (example 5) and vehicle were administered once per day for 14 days via oral gavage at approximately the same time each day (±1 hour), (vehicle is 0.3 M gluconic acid pH 3.0). A range of concentrations of prodrug of (S)-1-phenyl-2-(pyridin-2-yl)ethanamine as fumarate salt in vehicle were prepared (for example 3, 10 and 30 mg/mL of prodrug of (S)-1-phenyl-2-(pyridin-2-yl)ethanamine) in order to keep the dose volume for all doses (2 mL/kg). The dosing formulations were warmed to room temperature by stirring for at least 30 minutes prior to dosing and continuously throughout the administration procedure. Individual doses were based on the most recent body weights of dogs used in the study.
Table 4 Compound 1 is (S)-1-phenyl-2-(pyridin-2-yl)ethanamine. […] In each case the highest blood concentration (Cmax) of free base (S)-1-phenyl-2-(pyridin-2-yl)ethanamine is measured. In the first case, the free base (S)-1-phenyl-2-(pyridin-2-yl)ethanamine is generated directly from Compound 1, administered as the dihydrochloride salt. In the second case, the free base (S)-1-phenyl-2-(pyridin-2-yl)ethanamine is generated via in vivo conversion from a prodrug of Compound 1, administered as the fumarate salt. The NOEL for seizures was higher when the prodrug of (S)-1-phenyl-2-(pyridin-2-yl)ethanamine as fumarate salt was administered compared to when (S)-1-phenyl-2-(pyridin-2-yl)ethanamine as dihydrochloride salt was administered.

[2] = Conversion of prodrug at increasing initial concentrations in human intestinal fluid (LC-UV); assay type: in vitro ADME; conditions: initial concentrations 33, 100, 300 and 600 μmol/L, FIG. 1a and 1b
Method: FIGS. 1a and 1b illustrates the conversion of prodrug of (S)-1-phenyl-2-(pyridin-2-yl)ethanamine (Example 5) to (S)-1-phenyl-2-(pyridin-2-yl)ethanamine during an incubation period in human intestinal fluid. In particular, FIG. 1a illustrates prodrug of (S)-1-phenyl-2-(pyridin-2-yl)ethanamine (Example 5) concentration (initial concentrations of 30, 100, 300 and 600 as it transforms to (S)-1-phenyl-2-(pyridin-2-yl)ethanamine, during an incubation period in human intestinal fluid. FIG. 1b illustrates (S)-1-phenyl-2-(pyridin-2-yl)ethanamine concentration, as it converts from prodrug of (S)-1-phenyl-2-(pyridin-2-yl)ethanamine (Example 5, initial concentrations of 30, 100, 300 and 600 μM), during an incubation period in human intestinal fluid. […]
Stock solutions of prodrug of (S)-1-phenyl-2-(pyridin-2-yl)ethanamine (0.33, 1, 3 and 6 mmol/L) were prepared by adding a volume (8.25, 25, 75 and 150 μL) of 20 mmol/L solution of prodrug of (S)-1-phenyl-2-(pyridin-2-yl)ethanamine dissolved in DMSO, to FaSSIF-v2 (491.75, 475, 425 and 350 μL). […] The conversion rate from prodrug to (S)-1-phenyl-2-(pyridin-2-yl)ethanamine was determined by fitting the measured prodrug and (S)-1-phenyl-2-(pyridin-2-yl)ethanamine concentrations versus time.

Caco-2 permeability = assay type: in vitro ADME; conditions: human; Caco-2 cells
Excerpt: as §1

[3] = human, s9, Table 1, read-out: Prodrug Clint Hum Liver S9
[4] = human, s9, Table 2, read-out: Prodrug Clint Hum Liver S9

Structure (SMILES)	microsomal CLint [1, 3] [µL/min/mg]	Papp (Caco-2 permeability) [×10⁻⁶ cm/s]	microsomal CLint [1, 4] [µL/min/mg]	also measured
CC(C)C(=O)OC(OC(=O)N[C@@H](Cc1ccccn1)c1ccccc1)C(C)C (single isomer, unassigned) [Example 2 Diastereomer 2]	1900	–	–	–
CC(OC(=O)N[C@@H](Cc1ccccn1)c1ccccc1)OC(=O)C(C)C (single isomer, unassigned) [Example 4 Diastereomer 1]	1200	–	–	–
Cl.Cl.N[C@@H](Cc1ccccn1)c1ccccc1 [Compound 1, as di-HCl salt, (S)-1-phenyl-2-(pyridin-2-yl)ethanamine dihydrochloride, reference compound]	–	–	–	LOEL Seizures in dog (Dose administered) (Seizures in dog): (20 mg/kg); NOEL Seizures in dog (Dose administered) (Seizures in dog): (10 mg/kg)
CC(C)C(=O)OCOC(=O)N[C@@H](Cc1ccccn1)c1ccccc1 [Example 1, (S)-(1-Phenyl-2-(pyridin-2-yl)ethylcarbamoyloxy)methyl isobutyrate]	2300	–	–	–
CC(C)[C@H](N)C(=O)N1CCC[C@H]1C(=O)N[C@@H](Cc1ccccn1)c1ccccc1 [Example 5, (S)-1-((S)-2-Amino-3-methylbutanoyl)-N—((S)-1-phenyl-2-(pyridin-2-yl)ethyl)pyrrolidine-2-carboxamide]	–	1.4	120	increase in concentration of (S)-1-phenyl-2-(pyridin-2-yl)ethanamine with increasing doses of prodrug [2]: less than proportional increases; risk of seizures, as represented by NOEL and LOEL (Seizures in dog; dogs, prodrug versus (S)-1-phenyl-2-(pyridin-2-yl)ethanamine dihydrochloride): less
NCCCC[C@H](N)C(=O)N1CCC[C@H]1C(=O)N[C@@H](Cc1ccccn1)c1ccccc1 [Example 6, (S)-1-((S)-2,6-Diaminohexanoyl)-N—((S)-1-phenyl-2-(pyridin-2-yl)ethyl)pyrrolidine-2-carboxamide]	–	0.07	73	–
N[C@@H](Cc1c[nH]cn1)C(=O)N1CCC[C@H]1C(=O)N[C@@H](Cc1ccccn1)c1ccccc1 [Example 7, (S)-1-((S)-2-Amino-3-(1H-imidazol-4-yl)propanoyl)-N—((S)-1-phenyl-2-(pyridin-2-yl)ethyl)pyrrolidine-2-carboxamide]	–	1.6	33	–
N[C@@H](Cc1ccc(O)cc1)C(=O)N1CCC[C@H]1C(=O)N[C@@H](Cc1ccccn1)c1ccccc1 [Example 8, 2-((S)-2-((S)-1-((S)-2-Amino-3-(4-hydroxyphenyl)propanoyl)pyrrolidine-2-carboxamido)-2-phenylethyl)pyridine dihydrochloride]	–	3.2	–	microsomal CLint ([1]; Table 2, read-out: Prodrug Clint Hum Liver S9): 51 µL/min/mg
N=C(N)NCCC[C@H](N)C(=O)N1CCC[C@H]1C(=O)N[C@@H](Cc1ccccn1)c1ccccc1 [Example 12, 2-[(2S)-2-{[(2S)-1-[(2S)-2-Azaniumyl-5-{[azaniumyl(iminiumyl)methyl]amino}pentanoyl]-pyrrolidin-2-yl]formamido}-2-phenylethyl]pyridin-1-ium tetrachloride]	–	8.6	69	–
CC(C)[C@H](N)C(=O)N1CCC[C@H]1C(=O)N[C@@H](Cc1ccccn1)c1ccccc1 [Prodrug of Compound 1, as fumarate salt, (S)-1-((S)-2-Amino-3-methylbutanoyl)-N-((S)-1-phenyl-2-(pyridin-2-yl)ethyl)pyrrolidine-2-carboxamide fumerate]	–	–	–	LOEL Seizures in dog (Dose administered) (Seizures in dog): (60 mg/kg); NOEL Seizures in dog (Dose administered) (Seizures in dog): (20 mg/kg)
